Data published in patent publication US20100137449A1, “SUBSTITUTED 1,3-CYCLOPENTADIONE MULTI-TARGET PROTEIN KINASE MODULATORS OF CANCER, ANGIOGENESIS AND THE INFLAMMATORY PATHWAYS ASSOCIATED THEREWITH” (METAPROTEOMICS, LLC, priority 2007, published 2010).

Tests used:
Test in all cases: KinaseProfiler Assay
CDK2/cyclinA(h) = CDK2/cyclinA(h) (Homo sapiens, UniProt P24941)
MAPKAP-K3(h) = MAPKAP-K3(h) (Homo sapiens, UniProt Q16644)
Abl(h) = Abl(h) (Homo sapiens, UniProt P00519)
PKBβ(h) = PKBβ(h) (Homo sapiens, UniProt P31751)
Sequence of PKBβ(h) (P31751 whole entry): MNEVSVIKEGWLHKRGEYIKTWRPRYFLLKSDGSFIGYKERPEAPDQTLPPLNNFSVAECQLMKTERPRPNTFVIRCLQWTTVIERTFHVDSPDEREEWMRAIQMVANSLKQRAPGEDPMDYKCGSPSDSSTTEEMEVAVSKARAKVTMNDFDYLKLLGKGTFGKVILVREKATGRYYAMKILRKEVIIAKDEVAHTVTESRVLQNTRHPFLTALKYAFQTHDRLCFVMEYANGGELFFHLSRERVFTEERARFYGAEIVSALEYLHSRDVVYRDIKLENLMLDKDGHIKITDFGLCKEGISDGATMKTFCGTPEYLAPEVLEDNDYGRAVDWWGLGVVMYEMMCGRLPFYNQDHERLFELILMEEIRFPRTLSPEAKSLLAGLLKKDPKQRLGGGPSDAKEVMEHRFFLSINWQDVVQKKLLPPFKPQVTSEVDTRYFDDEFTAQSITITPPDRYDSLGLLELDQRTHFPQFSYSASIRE

MAPK1(h), ERK1 = MAPK1(h), ERK1 (Homo sapiens, UniProt P27361)
Sequence of MAPK1(h), ERK1 (P27361 whole entry): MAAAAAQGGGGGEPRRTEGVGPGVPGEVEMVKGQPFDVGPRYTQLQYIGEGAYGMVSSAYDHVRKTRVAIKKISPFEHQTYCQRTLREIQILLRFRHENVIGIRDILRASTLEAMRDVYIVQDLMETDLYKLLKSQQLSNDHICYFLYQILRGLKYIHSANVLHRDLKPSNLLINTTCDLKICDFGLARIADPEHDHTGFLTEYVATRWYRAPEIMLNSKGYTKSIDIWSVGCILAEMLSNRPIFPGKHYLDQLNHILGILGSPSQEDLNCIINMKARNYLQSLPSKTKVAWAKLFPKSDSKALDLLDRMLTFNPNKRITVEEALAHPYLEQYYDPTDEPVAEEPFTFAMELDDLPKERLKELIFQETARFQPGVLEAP

Pim-1(h) = Pim-1(h) (Homo sapiens, UniProt P11309)
Sequence of Pim-1(h) (P11309 whole entry): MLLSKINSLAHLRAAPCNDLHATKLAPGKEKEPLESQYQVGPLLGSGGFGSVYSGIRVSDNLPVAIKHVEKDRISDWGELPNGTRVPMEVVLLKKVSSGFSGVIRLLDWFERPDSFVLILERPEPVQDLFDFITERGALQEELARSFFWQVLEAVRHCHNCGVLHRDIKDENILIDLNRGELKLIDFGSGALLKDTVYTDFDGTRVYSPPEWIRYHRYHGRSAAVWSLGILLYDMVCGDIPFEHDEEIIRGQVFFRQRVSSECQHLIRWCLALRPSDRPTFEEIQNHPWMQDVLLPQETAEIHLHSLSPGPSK

NEK2(h) = molecular target: T1, NEK2(h) (Homo sapiens, UniProt P51955)
T1 sequence (P51955 1-445): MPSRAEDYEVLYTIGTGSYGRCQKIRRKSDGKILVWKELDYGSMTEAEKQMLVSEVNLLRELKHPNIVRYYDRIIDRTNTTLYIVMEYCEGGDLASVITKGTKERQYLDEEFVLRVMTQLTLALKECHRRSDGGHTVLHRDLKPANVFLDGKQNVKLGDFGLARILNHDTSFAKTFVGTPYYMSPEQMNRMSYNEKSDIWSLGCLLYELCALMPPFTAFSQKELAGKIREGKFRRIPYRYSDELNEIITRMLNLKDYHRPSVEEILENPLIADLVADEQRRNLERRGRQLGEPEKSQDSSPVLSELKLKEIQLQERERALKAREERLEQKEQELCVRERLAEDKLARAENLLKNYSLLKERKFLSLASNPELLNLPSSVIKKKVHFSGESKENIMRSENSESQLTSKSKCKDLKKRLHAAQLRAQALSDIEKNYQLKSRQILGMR

Arg(m) = Arg(m) (Mus musculus, UniProt Q4JIM5)
Sequence of Arg(m) (Q4JIM5 whole entry): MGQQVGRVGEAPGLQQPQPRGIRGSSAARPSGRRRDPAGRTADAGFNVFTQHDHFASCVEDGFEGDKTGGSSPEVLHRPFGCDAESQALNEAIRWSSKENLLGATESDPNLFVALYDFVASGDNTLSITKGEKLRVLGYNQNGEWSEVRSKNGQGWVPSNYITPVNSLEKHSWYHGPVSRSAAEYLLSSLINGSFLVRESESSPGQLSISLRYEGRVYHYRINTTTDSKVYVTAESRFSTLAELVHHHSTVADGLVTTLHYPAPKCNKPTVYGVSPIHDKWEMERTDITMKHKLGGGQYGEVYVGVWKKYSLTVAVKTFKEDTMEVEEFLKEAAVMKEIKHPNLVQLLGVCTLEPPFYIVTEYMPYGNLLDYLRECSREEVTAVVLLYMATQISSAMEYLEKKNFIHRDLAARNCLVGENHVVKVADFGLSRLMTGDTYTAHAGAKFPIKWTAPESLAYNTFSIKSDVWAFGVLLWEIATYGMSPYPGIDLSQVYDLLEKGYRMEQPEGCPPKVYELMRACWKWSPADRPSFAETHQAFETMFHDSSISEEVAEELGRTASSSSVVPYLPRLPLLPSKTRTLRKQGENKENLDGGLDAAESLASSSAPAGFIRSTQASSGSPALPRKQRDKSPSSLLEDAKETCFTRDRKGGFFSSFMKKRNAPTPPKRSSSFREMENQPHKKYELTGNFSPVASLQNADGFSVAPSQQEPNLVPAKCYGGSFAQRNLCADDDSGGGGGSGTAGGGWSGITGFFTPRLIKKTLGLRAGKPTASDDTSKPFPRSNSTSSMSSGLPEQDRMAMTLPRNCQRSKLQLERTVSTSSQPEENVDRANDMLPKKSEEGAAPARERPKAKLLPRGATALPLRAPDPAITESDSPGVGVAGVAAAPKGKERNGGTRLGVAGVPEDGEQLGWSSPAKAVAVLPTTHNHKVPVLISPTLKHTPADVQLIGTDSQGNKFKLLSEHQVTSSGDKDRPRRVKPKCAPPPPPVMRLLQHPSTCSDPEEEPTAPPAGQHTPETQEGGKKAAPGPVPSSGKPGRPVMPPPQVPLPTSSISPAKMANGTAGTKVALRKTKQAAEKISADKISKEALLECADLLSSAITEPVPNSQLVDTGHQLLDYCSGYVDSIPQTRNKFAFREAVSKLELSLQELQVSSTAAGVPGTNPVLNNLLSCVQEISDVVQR

CLK2(h) = CLK2(h) (Homo sapiens, UniProt P49760)
Sequence of CLK2(h) (P49760 whole entry): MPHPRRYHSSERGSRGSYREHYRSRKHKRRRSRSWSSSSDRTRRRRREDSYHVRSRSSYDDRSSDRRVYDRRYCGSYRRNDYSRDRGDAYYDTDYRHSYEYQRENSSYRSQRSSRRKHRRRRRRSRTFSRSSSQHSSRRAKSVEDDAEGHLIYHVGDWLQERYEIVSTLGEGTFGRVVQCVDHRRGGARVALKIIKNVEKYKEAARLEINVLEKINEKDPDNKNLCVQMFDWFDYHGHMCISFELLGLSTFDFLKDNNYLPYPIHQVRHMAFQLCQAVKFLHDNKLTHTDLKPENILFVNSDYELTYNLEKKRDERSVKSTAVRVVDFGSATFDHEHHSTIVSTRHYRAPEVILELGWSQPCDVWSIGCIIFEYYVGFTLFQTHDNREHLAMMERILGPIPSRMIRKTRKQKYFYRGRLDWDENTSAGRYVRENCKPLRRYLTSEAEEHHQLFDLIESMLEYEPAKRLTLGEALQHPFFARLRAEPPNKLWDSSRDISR

CDK2/cyclinE(h) = CDK2/cyclinE(h) (Homo sapiens, UniProt P24941)
ZIPK(h) = ZIPK(h) (Homo sapiens, UniProt O43293)
Sequence of ZIPK(h) (O43293 whole entry): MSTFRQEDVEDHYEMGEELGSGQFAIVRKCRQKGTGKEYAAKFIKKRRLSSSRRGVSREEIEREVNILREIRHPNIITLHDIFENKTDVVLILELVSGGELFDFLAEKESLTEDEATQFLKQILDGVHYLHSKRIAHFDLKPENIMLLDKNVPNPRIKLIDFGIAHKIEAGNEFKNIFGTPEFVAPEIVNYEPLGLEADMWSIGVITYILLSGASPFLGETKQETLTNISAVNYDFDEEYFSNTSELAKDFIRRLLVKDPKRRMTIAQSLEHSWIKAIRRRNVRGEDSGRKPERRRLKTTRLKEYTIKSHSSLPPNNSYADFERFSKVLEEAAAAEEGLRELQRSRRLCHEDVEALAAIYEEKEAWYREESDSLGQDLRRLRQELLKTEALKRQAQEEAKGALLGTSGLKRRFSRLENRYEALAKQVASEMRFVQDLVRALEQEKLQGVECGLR

EphB1(h) = molecular target: T2, EphB1(h) (Homo sapiens, UniProt P54762)
T2 sequence (P54762 18-984): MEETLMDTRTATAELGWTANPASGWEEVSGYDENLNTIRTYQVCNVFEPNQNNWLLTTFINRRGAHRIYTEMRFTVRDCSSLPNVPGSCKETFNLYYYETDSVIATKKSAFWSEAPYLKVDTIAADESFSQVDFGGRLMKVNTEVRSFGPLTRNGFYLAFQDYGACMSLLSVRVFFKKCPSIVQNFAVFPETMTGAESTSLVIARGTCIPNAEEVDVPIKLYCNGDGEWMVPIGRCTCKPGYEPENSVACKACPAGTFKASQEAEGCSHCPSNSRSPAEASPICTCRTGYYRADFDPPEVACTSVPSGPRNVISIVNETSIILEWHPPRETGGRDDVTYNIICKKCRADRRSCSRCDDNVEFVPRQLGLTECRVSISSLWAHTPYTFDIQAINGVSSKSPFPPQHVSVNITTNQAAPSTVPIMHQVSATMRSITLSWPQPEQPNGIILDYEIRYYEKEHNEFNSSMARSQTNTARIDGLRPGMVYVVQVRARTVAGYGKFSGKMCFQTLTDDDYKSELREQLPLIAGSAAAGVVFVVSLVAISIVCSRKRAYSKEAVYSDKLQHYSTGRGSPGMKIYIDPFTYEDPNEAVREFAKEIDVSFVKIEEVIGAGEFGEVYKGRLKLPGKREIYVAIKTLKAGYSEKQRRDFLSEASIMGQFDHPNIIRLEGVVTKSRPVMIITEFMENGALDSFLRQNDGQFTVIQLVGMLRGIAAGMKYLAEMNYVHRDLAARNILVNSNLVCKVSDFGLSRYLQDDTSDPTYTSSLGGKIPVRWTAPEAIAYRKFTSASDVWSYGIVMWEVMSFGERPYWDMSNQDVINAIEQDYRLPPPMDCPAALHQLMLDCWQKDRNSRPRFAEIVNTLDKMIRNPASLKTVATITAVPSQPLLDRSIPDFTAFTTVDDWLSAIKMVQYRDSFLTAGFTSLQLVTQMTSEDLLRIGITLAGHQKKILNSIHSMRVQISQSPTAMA

Sequence of MAPKAP-K3(h) (Q16644 whole entry): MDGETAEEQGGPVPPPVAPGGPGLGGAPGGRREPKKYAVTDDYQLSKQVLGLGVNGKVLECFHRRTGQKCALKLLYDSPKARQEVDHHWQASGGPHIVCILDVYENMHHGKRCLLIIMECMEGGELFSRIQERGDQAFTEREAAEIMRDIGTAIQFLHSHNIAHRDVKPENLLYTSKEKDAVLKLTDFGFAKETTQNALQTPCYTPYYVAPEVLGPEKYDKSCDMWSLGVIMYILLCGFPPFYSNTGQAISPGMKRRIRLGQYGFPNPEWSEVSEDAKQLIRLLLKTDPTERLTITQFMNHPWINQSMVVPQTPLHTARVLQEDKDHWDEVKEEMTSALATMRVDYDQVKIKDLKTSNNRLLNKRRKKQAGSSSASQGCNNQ
Sequence of Abl(h) (P00519 whole entry): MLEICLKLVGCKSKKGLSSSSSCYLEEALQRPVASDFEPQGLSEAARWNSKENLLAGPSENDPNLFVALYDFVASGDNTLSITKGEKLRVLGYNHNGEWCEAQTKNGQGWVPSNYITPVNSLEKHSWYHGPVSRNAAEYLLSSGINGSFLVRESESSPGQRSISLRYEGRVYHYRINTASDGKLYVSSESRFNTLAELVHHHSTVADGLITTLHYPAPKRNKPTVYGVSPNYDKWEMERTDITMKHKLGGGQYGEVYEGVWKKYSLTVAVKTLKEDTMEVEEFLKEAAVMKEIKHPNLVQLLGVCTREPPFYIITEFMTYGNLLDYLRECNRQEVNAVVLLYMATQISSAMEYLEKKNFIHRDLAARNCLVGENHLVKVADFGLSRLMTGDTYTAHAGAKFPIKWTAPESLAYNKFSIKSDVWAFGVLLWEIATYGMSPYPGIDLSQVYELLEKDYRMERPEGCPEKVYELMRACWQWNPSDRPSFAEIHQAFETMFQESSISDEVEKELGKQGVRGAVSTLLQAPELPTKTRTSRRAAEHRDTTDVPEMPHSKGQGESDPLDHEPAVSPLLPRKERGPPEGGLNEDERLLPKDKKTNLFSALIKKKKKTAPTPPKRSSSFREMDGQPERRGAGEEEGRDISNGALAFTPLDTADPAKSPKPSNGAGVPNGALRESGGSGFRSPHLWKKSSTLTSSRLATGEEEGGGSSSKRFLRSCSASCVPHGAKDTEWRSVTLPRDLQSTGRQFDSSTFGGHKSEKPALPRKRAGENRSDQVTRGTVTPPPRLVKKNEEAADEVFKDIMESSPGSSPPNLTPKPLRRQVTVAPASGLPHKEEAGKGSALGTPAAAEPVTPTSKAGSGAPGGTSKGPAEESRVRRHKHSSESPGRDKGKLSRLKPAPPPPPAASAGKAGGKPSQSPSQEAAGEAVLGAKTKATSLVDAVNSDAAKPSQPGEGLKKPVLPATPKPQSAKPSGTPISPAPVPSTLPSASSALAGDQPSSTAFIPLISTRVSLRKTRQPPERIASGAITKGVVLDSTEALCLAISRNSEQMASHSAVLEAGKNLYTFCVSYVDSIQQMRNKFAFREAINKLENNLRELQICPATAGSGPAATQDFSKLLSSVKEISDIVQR

SMILES: CC(C)CCC(=O)[C@]1(O)C(O)=C(C(=O)C(C)C)C(=O)[C@H]1CCC(C)C [TH2, tetrahydroiso-cohumulone]
- kinase inhibition (CDK2/cyclinA(h); 1 μg/ml): 114% of control
- kinase inhibition (CDK2/cyclinA(h); 5 μg/ml): 124% of control
- kinase inhibition (CDK2/cyclinA(h); 25 μg/ml): 95% of control
- kinase inhibition (CDK2/cyclinA(h); 50 μg/ml): 98% of control
- kinase inhibition (CDK2/cyclinA(h); 100 μg/ml): 87% of control
- kinase inhibition (MAPKAP-K3(h); 1 μg/ml): 101% of control
- kinase inhibition (MAPKAP-K3(h); 5 μg/ml): 100% of control
- kinase inhibition (MAPKAP-K3(h); 25 μg/ml): 109% of control
- kinase inhibition (MAPKAP-K3(h); 50 μg/ml): 104% of control
- kinase inhibition (MAPKAP-K3(h); 100 μg/ml): 101% of control
- kinase inhibition (Abl(h); 1 μg/ml): 92% of control
- kinase inhibition (Abl(h); 5 μg/ml): 87% of control
- kinase inhibition (Abl(h); 25 μg/ml): 70% of control
- kinase inhibition (Abl(h); 50 μg/ml): 64% of control
- kinase inhibition (Abl(h); 100 μg/ml): 40% of control
- kinase inhibition (PKBβ(h); 1 μg/ml): 104% of control
- kinase inhibition (PKBβ(h); 5 μg/ml): 97% of control
- kinase inhibition (PKBβ(h); 25 μg/ml): 68% of control
- kinase inhibition (PKBβ(h); 50 μg/ml): 43% of control
- kinase inhibition (PKBβ(h); 100 μg/ml): 31% of control
- kinase inhibition (MAPK1(h), ERK1; 1 μg/ml): 93% of control
- kinase inhibition (MAPK1(h), ERK1; 5 μg/ml): 83% of control
- kinase inhibition (MAPK1(h), ERK1; 25 μg/ml): 72% of control
- kinase inhibition (MAPK1(h), ERK1; 50 μg/ml): 75% of control
- kinase inhibition (MAPK1(h), ERK1; 100 μg/ml): 67% of control
- kinase inhibition (Pim-1(h); 1 μg/ml): 86% of control
- kinase inhibition (Pim-1(h); 5 μg/ml): 100% of control
- kinase inhibition (Pim-1(h); 25 μg/ml): 87% of control
- kinase inhibition (Pim-1(h); 50 μg/ml): 84% of control
- kinase inhibition (Pim-1(h); 100 μg/ml): 55% of control
- kinase inhibition (NEK2(h); 1 μg/ml): 106% of control
- kinase inhibition (NEK2(h); 5 μg/ml): 109% of control
- kinase inhibition (NEK2(h); 25 μg/ml): 105% of control
- kinase inhibition (NEK2(h); 50 μg/ml): 102% of control
- kinase inhibition (NEK2(h); 100 μg/ml): 72% of control
- kinase inhibition (Arg(m); 1 μg/ml): 100% of control
- kinase inhibition (Arg(m); 5 μg/ml): 101% of control
- kinase inhibition (Arg(m); 25 μg/ml): 103% of control
- kinase inhibition (Arg(m); 50 μg/ml): 88% of control
- kinase inhibition (Arg(m); 100 μg/ml): 62% of control
- kinase inhibition (CLK2(h); 1 μg/ml): 103% of control
- kinase inhibition (CLK2(h); 5 μg/ml): 100% of control
- kinase inhibition (CLK2(h); 25 μg/ml): 110% of control
- kinase inhibition (CLK2(h); 50 μg/ml): 101% of control
- kinase inhibition (CLK2(h); 100 μg/ml): 96% of control
- kinase inhibition (CDK2/cyclinE(h); 1 μg/ml): 95% of control
- kinase inhibition (CDK2/cyclinE(h); 5 μg/ml): 101% of control
- kinase inhibition (CDK2/cyclinE(h); 25 μg/ml): 93% of control
- kinase inhibition (CDK2/cyclinE(h); 50 μg/ml): 71% of control
- kinase inhibition (CDK2/cyclinE(h); 100 μg/ml): 54% of control
- kinase inhibition (ZIPK(h); 1 μg/ml): 106% of control
- kinase inhibition (ZIPK(h); 5 μg/ml): 96% of control
- kinase inhibition (ZIPK(h); 25 μg/ml): 91% of control
- kinase inhibition (ZIPK(h); 50 μg/ml): 81% of control
- kinase inhibition (ZIPK(h); 100 μg/ml): 76% of control
- kinase inhibition (EphB1(h); 1 μg/ml): 127% of control
- kinase inhibition (EphB1(h); 5 μg/ml): 82% of control
- kinase inhibition (EphB1(h); 25 μg/ml): 144% of control
- kinase inhibition (EphB1(h); 50 μg/ml): 195% of control
- kinase inhibition (EphB1(h); 100 μg/ml): 105% of control
